Experimental findings from patent US20120214743A1, “ITCH SUPPRESSANT” (University of Occupational and Environmental Health, Japan, priority 2009, published 2012) are described below.

Test [1] concerns ICR mice. Kind of test: SP-induced scratch behavior in ICR mice. Format: in vivo, mouse. The protocol:
Since it is considered that external administration of CCK affects keratinocytes, at first, CCK2R agonist was administered transdermally (applying the solution prepared using acetone-olive (3:1)) to itch-related behavior model (ICR mice administered intradermally with SP (100 nmol)).
The hair was clipped over the rostral part of the murine back one or two days prior to experiment. Before behavioral recording, each mouse (4 animals per observation) was put into an acrylic cage (18×23×11 cm) for at least 1 hr for acclamation. An intradermal injection of SP (100 nmol in normal saline per site) induces scratching of the skin around the injected site by the hind paws in mice. CCKs were topically applied in the two ways, percutaenous application and intradermal injection. For percutaneous application, the shaved back skin was stripped with Scotch tape (3M) 6 times the day before the experiment. The mice were painted on the clipped back with 20 μL CCK (0.5 nmol/site) in acetone/olive (3:1) 3-4 minutes before SP injection (100 nmol/site). […] Immediately after treatment, the animals were put back into the same cage and their behavior was videotaped using a digital video camera for 40 minutes. The frequency of scratch toward the injected site by hind paws was counted for the first 20 minutes with the video.

Test [2] relates to NHEKs. Briefly: IL-8 production in NHEK (cytometric bead array). As to conditions: CCK8S 10^−9, 10^−8 or 10^−7 M, Ca 0.15 mM or 0.6 mM, FIG. 5A. The class given is cell-based, human. The protocol:
IL^-8 concentration in the culture supernatants was quantified with Cytometric Bead Array (CBA) Flex Set System purchased from BD using FACSCanto (BD).
NHEKs were stimulated with various concentrations of CCK8S (CCK8S concentration of 10^−9, 10^−8, or 10^−7 M, Ca concentration of 0.15 mM or 0.6 mM).

For test [3], the system named is FSMCs (mouse fetal skin derived mast cells). Kind of test: β-Hexosaminidase assay, compound 48/80-induced degranulation of FSMCs. Format: cell-based. As to conditions: CCK8S at 10^−8 or 10^−7 M, 15 min at 37° C., FIG. 5B. The protocol:
FSMCs were washed with Tyrode's buffer (Sigma), and resuspended at 2×10^4 cells per well into a 96 well plate. FSMCs were treated with compound 48/80 with or without CCK8S for 15 min at 37° C. The plate was centrifuged for 5 min and supernatant was placed into another 96 well and cell pellet were resuspended with 0.5% Triton X-100 (Sigma) in Tyrode's buffer. Supernatant and cell lysate (50 μl) was incubated with 100 μl 4 mM p-nitrophenyl-N-acetyl-β-D-galactosaminide (Sigma), dissolved in citrate buffer, pH4.5, at 37 ° C. for 90 min. The reaction is stopped with 200 μl 0.2M Glycine (MP Biomedicals, Solon, Ohio), pH10.7. The plate was read at 405 nm using a reference filter 595 nm by Microplate Reader (Bio-Rad, Hercules, Calif.). β-hexosaminidase release was determined as the ratio between activity in the supernatant and cell lysate multiplied by 100.
The addition of compound 48/80 induces degranulation in FSMCs.

The subject of test [4] is ICR mice. Briefly: Contact hypersensitivity (CHS) mouse model to DNFB, ear swelling. The class given is in vivo. As to conditions: 0.5 nmol/ear painted immediately before DNFB challenge, measured 24 hours after challenge; FIG. 5C. The protocol: For induction of CHS to 2,4-dinitrofluorobenzene (DNFB; Nakalai Tesque, Kyoto, Japan), ICR mice were sensitized on two consecutive days, days 0 and 1, on the clipped abdomen with 25 μL of 0.5% of DNFB diluted in acetone/olive oil (3:1). Five days later, animals were challenged on both sides of each ear by painting a nonirritant concentration of 0.2% DNFB. Before challenge, CCK8S (0.5 nmol/ear) diluted in acetone/olive oil (3:1) or only acetone/olive oil (control) was painted on each ear. The ear thickness of mice was measured using dial thickness gauge before and 24 hours after challenge. Ear swelling was calculated from the difference in ear thickness between before and after challenge.
In CHS model, mice were sensitized with DNFB (2,4-dinitrofluorobenzene), a haptene, and the contact hypersensitivity raised by DNFB at day 5 lead to ear swelling.

For test [5], the system named is FSMCs. Kind of test: Confocal imaging of intracellular Ca in FSMCs. Format: cell-based, mouse. On the procedure: Confocal imaging of cells loaded with fluorescent dyes was undertaken using a Zeiss LSM5 pascal (Carl Zeiss, Jena, Germany). Fluo-4-AM (Invitrogen) (1 μM) was loaded at 37° C. for 20 min and washed twice and sit at least for 40 min. Mast cells, were stained for CD117 (c-kit) with Alexa Fluor 700-conjugated anti-mouse CD117 antibody. The LSM5 multi-track configuration was used for simultaneous measurement of intracellular Ca concentration (Ca) (excitation, 488 nm; emission, long-pass 505 nm filter) and the expression of CD117 (excitation, 633 nm; emission, long-pass 650 nm filter). Images were recorded at room temperature with 512×512 pixels. The application of stimulation, such SP and CCK, were applied directly in the bath as a small drop ([…]). Image data were analyzed off-line using the Zeiss LSM510 analyzing software (LSM Image Examiner).
Thus, it is likely that CCK8S affects signaling in mast cells.

Ends that are not written are not given here. * marks the point of attachment. SO3H = O=S(=O)(O)* Bounds are passed on as bounds.

Turning to “Asp-Tyr(SO3H)-Met-Gly-Trp-Met-Asp-Phe-NH2 (DY(SO3H)MGWMDF-NH2) [CCK8S, natural type cholecystokinin, tyrosine at seventh position from C-terminal sulfated]”, the “scratch behavior (frequency of scratch, first 20 minutes)” value in test [1] (subcutaneous administration, 0.5 nmol/site in saline simultaneously with SP 100 nmol, FIG. 3B) was “depressed”; in test [1] (transdermal, 0.5 nmol/site in acetone/olive (3:1), tape-stripped skin, 3-4 minutes before SP 100 nmol/site intradermal, FIG. 3), “significant reduction”. The “production of IL-8” value in test [2] is recorded as “decreased in accordance with the concentration”. Moreover, in test [3], the “degranulation (β-hexosaminidase release) induced by compound 48/80” value is listed as “suppression of degranulation was observed”. For the same substance, the ear swelling result in test [4] is on record as “suppressed”. The “percentage of responding FSMCs” value in test [5] (Ca response after CCK8S, FIG. 6 bottom) came out at 45%. Further, the “change of intracellular Ca concentration” value in test [5] (FSMCs, Fluo-4-AM, FIG. 6 top) was “transient increase”. Besides, in test [5] (FSMCs, FIG. 6 top), the “time to transient increase in Ca after the administration” value is not above 1 min.
